The values that follow are results of earlier work, collected in patent US4529593A, “Use of gallium salts to treat disorders of calcium homeostasis” (Sloan-Kettering Institute for Cancer Research, priority 1984, dated 1985).

The test system of series [1] is blood calcium levels. The conditions noted are these: prior knowledge; cited from earlier work.
The test system of series [2] is bone cells (particularly osteoclasts). The conditions noted are these: comparatively brief exposure; Minkin 1973, Bockman unpublished; cited from earlier work.

For `CO[C@H](C(=O)[C@@H](O)[C@@H](C)O)[C@@H]1Cc2cc3cc(O[C@H]4C[C@@H](O[C@H]5C[C@@H](O)[C@H](O)[C@@H](C)O5)[C@H](O)[C@@H](C)O4)c(C)c(O)c3c(O)c2C(=O)[C@H]1O[C@H]1C[C@@H](O[C@H]2C[C@@H](O[C@H]3C[C@](C)(O)[C@H](O)[C@@H](C)O3)[C@@H](O)[C@@H](C)O2)[C@H](O)[C@@H](C)O1` [Mithramycin], in series [1], the blood calcium levels result is reported as “can also reduce blood calcium levels”. Also, the “loss of bone cells (particularly osteoclasts) number” value in series [2] is recorded as “considerable loss of bone cells”.
